According to US20120107916A1, “METHODS AND COMPOSITIONS FOR AFFECTING THE DIFFERENTIATION OF CLOSTRIDIA IN CULTURE” (priority 2009, published 2012):

Key:
[1] = tested on: C. beijerinckii NCIMB 8052; test: Ceric ion reactive compounds (total alcohols) in culture broths, colorimetric ceric ammonium nitrate assay; assay type: cell-based, Clostridium beijerinckii; conditions: 50 nM peptide; for Optical density of ceric ion reactive compounds measured at 500 nm: transfer 3, 96 h, 30° C.
Procedure: (§1) Bacterial strains and media. Clostridium acetobutylicum ATCC 824 and C. beijerinckii NCIMB 8052 are available from several commercial microbial culture collections including the American Type Culture Collection (ATCC), Manassas, Va., USA. The strains were grown at 30° C. or 37° C. in YE broth, which contained, per liter: 5.0 g yeast extract, 2.5 g casamino acids, 1.0 g L-asparagine, 0.5 g cysteine.HCl, 56 mg K2HPO4, 56 mg KH2PO4, 82 mg anhydrous MgSO4, 8 mg FeSO4.H2O, 6 mg MnSO4.H2O and 10 g glucose. Alternatively, strains were grown in YEPG broth, which was identical to YE expect that K2HPO4 and KH2PO4 were increased to 145 mg/L each and glucose was increased to 60 g/L. The pH of the media was adjusted to 7.2 using 45% KOH prior to sterilization by autoclaving. Media were solidified by addition of 1.5% Bacteriological Agar, Actimedia Manufacturers, Inc., Lansing, Mich. All cultures were grown in anaerobic conditions using the AnaeroPack System, Mitsubishi Gas Chemical Co., Inc., Japan, and GasPak EZ Gas Generating Sachets, Becton, Dickinson and Co., Sparks, Md. Spore stocks were kept at room temperature on agar-solidified media and were activated by suspending spores in 0.5 mL to 1.0 mL of medium followed by heating for 10 min at 80° C. before inoculation into growth medium.
Analysis of solvents. Total alcohols in cell-free culture supernatants were measured using a modification of a colorimetric method based on ceric ammonium nitrate (Reid and Truelove, 1952). […] The sample was mixed by inverting the cuvette six times then exactly two minutes later the optical density at 500 nm wavelength was measured. The concentration of total alcohols was determined by comparison with a standard curve prepared by using butanol diluted in distilled water.
Effect of peptide SEQ ID NO:145 addition on sequential batch cultures of C. beijerinckii NCIMB 8052 grown at 30° C. […] Each culture was stopped after 96 hours of incubation and optical density, pH and ceric ion reactive chemicals were measured. […]

[2] = tested on: C. beijerinckii NCIMB 8052; test: Growth (optical density at 600 nm) of sequential batch cultures; assay type: cell-based, Clostridium beijerinckii
Procedure: as §1
Growth and pH measurements. Growth of bacterial cultures was measured spectrophotometrically using optical density at 600 nm and pH of cell-free culture supernatants was measured using a hand-held Shindengen ISFET pH Meter KS501, Shendengen Electric Manufacturing Co., Ltd., Bannockburn, Ill.
Effect of peptide SEQ ID NO:145 addition on sequential batch cultures of C. beijerinckii NCIMB 8052 grown at 30° C. Spores of C. beijerinckii NCIMB 8052 were germinated and grown overnight at 30° C. under anaerobic conditions in YEPG medium. After about 24 h of growth, […] of the culture was transferred (transfer 1) to each of four flasks that contained 10 mL of YEPG and either had no treatment or were treated with peptide SEQ ID NO:145 (see Table 8) at 1 nM, 10 nM or 50 nM. Thereafter, 75 μL of each culture was transferred, at the same time, every 24-48 h to 10 mL of fresh YEPG that contained the same peptide treatment or no treatment. Each culture was stopped after 96 hours of incubation and optical density, pH and ceric ion reactive chemicals were measured. Sequential batch culturing was continued through 6 transfers at which point all cultures appeared to be growing to the same extent (Table 12 and FIG. 4).
Effect of peptide SEQ ID NO:145 addition on sequential batch cultures of C. beijerinckii NCIMB 8052 grown at 37° C. Spores of C. beijerinckii NCIMB 8052 were germinated and grown overnight at 37° C. under anaerobic conditions in YEPG medium that either contained 50 nM of peptide SEQ ID NO:145 or no added peptide. After about 24 h of growth, 10 μL of the untreated culture was transferred (transfer 1) to each of two flasks that contained 10 mL of YEPG with either no treatment or with 50 nM peptide SEQ ID NO:145. At the same time, 10 μL of the culture that was germinated in the presence of peptide SEQ ID NO:145 was also transferred to 10 mL of YEPG that contained 50 nM of peptide SEQ ID NO:145. Thereafter, 10 μL of each culture was transferred, at the same time, every 24-48 h to 10 mL of fresh YEPG that contained the same peptide treatment or no treatment. Each culture was stopped after 72 hours of incubation and optical density, pH and ceric ion reactive chemicals were measured. Addition of peptide SEQ ID NO:145 appeared to have no effect on endpoint measurements of the growth of C. beijerinckii NCIMB 8052 after germination or during sequential transfers of cultures at 37° C. (Table 18 and FIG. 10). All three cultures stopped growing at the second transfer.

In the case of “IRLIT (Derived from Clostridium beijerinckii SEQ ID NO: 141) [Peptide SEQ ID NO:145, pentapeptide from C. beijerinckii NCIMB 8052 locus Cbei_1065; chemically synthesized putative autoinducing peptide]”, the “Effect on endpoint measurements of ceric ion reactive compounds” value ([1]; 37° C.) is reported as “no apparent effect”, the “Optical density of ceric ion reactive compounds measured at 500 nm” value ([1]; listed as SEQ ID NO: 145) is reported as −0.002 and the “Optical density of ceric ion reactive compounds measured at 500 nm” value ([1]; listed as SEQ ID NO:145) is reported as “no ceric ion reactive compounds”. For the same substance, the “Optical density at 600 nm of culture broths” value (shortened to “Optical density at 600 nm”) ([2]; 1 nM peptide, transfer 1, 96 h, 30° C.) was 2.086, the “Optical density at 600 nm” value ([2]; 1 nM peptide, transfer 2, 96 h, 30° C.) was 2.086 and the “Optical density at 600 nm” value ([2]; 1 nM peptide, transfer 3, 96 h, 30° C.) was 2.106. For the same substance, the “Optical density at 600 nm” value ([2]; 1 nM peptide, transfer 4, 96 h, 30° C.) was 2.115, the “Optical density at 600 nm” value ([2]; 1 nM peptide, transfer 5, 96 h, 30° C.) was 2.090 and the “Optical density at 600 nm” value ([2]; 1 nM peptide, transfer 6, 96 h, 30° C.) was 2.075. For the same substance, the “Optical density at 600 nm” value ([2]; 10 nM peptide, transfer 1, 96 h, 30° C.) was 2.080, the “Optical density at 600 nm” value ([2]; 10 nM peptide, transfer 2, 96 h, 30° C.) was 2.093 and the “Optical density at 600 nm” value ([2]; 10 nM peptide, transfer 3, 96 h, 30° C.) was 2.078. For the same substance, the “Optical density at 600 nm” value ([2]; 10 nM peptide, transfer 4, 96 h, 30° C.) was 2.108, the “Optical density at 600 nm” value ([2]; 10 nM peptide, transfer 5, 96 h, 30° C.) was 2.069 and the “Optical density at 600 nm” value ([2]; 10 nM peptide, transfer 6, 96 h, 30° C.) was 2.062. The “Optical density at 600 nm” value ([2]; 50 nM peptide added after germination, transfer 1, 72 h, 37° C.) was 1.313, the “Optical density at 600 nm” value ([2]; 50 nM peptide added after germination, transfer 2, 72 h, 37° C.) was 0.011 and the “Effect on endpoint measurements of growth after germination or during sequential transfers” value ([2]; 50 nM peptide, 37° C.) was “no effect”. For the same substance, the “Effect on germination and growth (visual observations through the course of growth)” value ([2]; 50 nM peptide, 37° C.) was “repressive effect”, the “Optical density at 600 nm” value ([2]; 50 nM peptide, transfer 1, 96 h, 30° C.) was 2.102 and the “Optical density at 600 nm” value ([2]; 50 nM peptide, transfer 2, 96 h, 30° C.) was 2.023. For the same substance, the “Optical density at 600 nm” value ([2]; 50 nM peptide, transfer 3, 96 h, 30° C.) was 1.936, the “Optical density at 600 nm” value ([2]; 50 nM peptide, transfer 4, 96 h, 30° C.) was 2.061 and the “Optical density at 600 nm” value ([2]; 50 nM peptide, transfer 5, 96 h, 30° C.) was 2.120. For the same substance, the “Optical density at 600 nm” value ([2]; 50 nM peptide, transfer 6, 96 h, 30° C.) was 2.046, the “Growth of treated cultures during incubation (data not shown)” value ([2]; 1-50 nM peptide, 96 h, 30° C.) was “slow the growth of the treated cultures during 96 h of incubation in a dose dependent manner” and the “Optical density at 600 nm” value ([2]; 50-50: germinated and transferred in 50 nM peptide, transfer 1, 72 h, 37° C.) was 1.420. The “Optical density at 600 nm” value ([2]; 50-50: germinated and transferred in 50 nM peptide, transfer 2, 72 h, 37° C.) was 0.011, the “Optical density at 600 nm” value ([2]; 50-50: spores germinated in 50 nM peptide, transfer 0 (germinated culture), 72 h, 37° C.) was 1.158 and the “Number of times that cultures could be transferred in comparison with an untreated culture” value ([2]; through six culture transfers, 30° C.) was “did not affect”.
